System: HT29 cells
Test: Necroptosis assay in HT29 cells (TNF-α, Smac mimetic, z-VAD; cell viability)
Format: cell-based
Details: Homo sapiens, HT-29; TNF-α (40 ng/mL), Smacmimetic (100 nM), z-VAD (20 μM), 48 hours
Procedure: Human colon cancer HT29 cells were used in a necroptosis assay. For this assay, HT29 cells were added to 96-well plates and then were pre-treated with 10 μM of the test compound for one hour. Then the cells were treated with TNF-α (40 ng/mL), Smacmimetic (100 nM) and z-VAD (20 μM) for 48 hours, and the viability of cells was quantified. DMSO pretreatment group was used as negative controls, Nec-1 pretreatment group was used as positive controls.
In Table 2, (1) “ND” indicates “not detected;” (2) Explanation for inhibition %: Taking Compound B14 as an example, its inhibition % was 30% (50 nM). It means that the when Compound B14 at a concentration of 50 nM was used in the HT29 Cell Assay, the necrosis of cells were inhibited at 30%.

Compound | IC50 [nM]
CNCC(C)OC(=O)N1CCc2ncc(-c3ccc4nc(NC(=O)C5CC5)sc4c3)cc21 (stereo not drawn) [Compound B79] | 16
CNC(=O)Nc1cn2cc(-c3cnc4c(c3)N(C(=O)OC3CCOCC3)CC4)ccc2n1 [Compound B72] | 48.1
O=C(Nc1nc2ccc(-c3cnc4c(c3)N(C(=O)OC3CCOCC3)CCC4)cc2s1)C1CC1 [Compound B50, tetrahydro-2H-pyran-4-yl-7-(2-(cyclopropanecarboxamido)benzo[d]thiazol-6-yl)-3,4-dihydro-1,5-naphthyridine-1(2H)-carboxylate] | 1.5
O=C(Nc1nc2ccc(-c3cnc4c(c3)N(C(=O)CC3CCOCC3)CC4)cc2s1)C1CC1 [Compound B62, N-(6-(1-(2-(tetrahydro-2H-pyran-4-yl)acetyl)-2,3-dihydro-1H-pyrrolo[3,2-b]pyridin-6-yl)benzo[d]thiazol-2-yl)cyclopropanecarboxamide] | 1.9
CC(=O)Nc1nc2ccc(-c3cnc4c(c3)N(C(=O)OC3CCCCCC3)CCO4)cc2s1 [Compound B26] | 3.2
CC(=O)Nc1nc2ccc(-c3cnc4c(c3)N(C(=O)OC3CCCCC3)CCN4)cc2s1 [Compound B40, Cyclohexyl-7-(2-acetamidobenzo[d]thiazol-6-yl)-3,4-dihydropyrido[2,3-b]pyrazine-1(2H)-carboxylate] | 24
CNC(=O)Nc1nc2ccc(-c3cnc4c(c3)N(C(=O)OC3CCOCC3)CC4)nc2s1 [Compound B71] | 33.4
CC(=O)Nc1nc2ccc(-c3cnc4c(c3)N(C(=O)OC3CCCCC3)CCN4C3CC3)cc2s1 [Compound B47] | 157
O=C(Nc1nc2ccc(-c3cnc4c(c3)N(C(=O)OCC3CC3)CC4)nc2s1)C1CC1 [Compound B76] | 2.4
Nc1nc2cc(-c3cnc4c(c3)N(C(=O)OC3CCCCC3)CCO4)ccn2n1 [Compound B4] | 90
O=C(Nc1nc2ccc(-c3cnc4c(c3)N(C(=O)OC3CCOCC3)CC4)nc2s1)C1CC1 [Compound B59, tetrahydro-2H-pyran-4-yl6-(2-(cyclopropanecarboxamido)thiazolo[5,4-b]pyridin-5-yl)-2,3-dihydro-1H-pyrrolo[3,2-b]pyridine-1-carboxylate] | 7
CC(=O)Nc1nc2ccc(-c3cnc4c(c3)N(C(=O)OC3CCOCC3)CC4)cc2s1 [Compound B53, tetrahydro-2H-pyran-4-yl6-(2-acetamidobenzo[d]thiazol-6-yl)-2,3-dihydro-1H-pyrrolo[3,2-b]pyridine-1-carboxylate] | 4.7
Nc1nc2ccc(-c3cnc4c(c3)N(C(=O)OC3CCCCC3)CCO4)cn2n1 [Compound B6] | 90
O=C(Nc1nc2ccc(-c3cnc4c(c3)N(C(=O)OC3CCNCC3)CC4)cc2s1)C1CC1 [Compound B67, Piperidin-4-yl-6-(2-(cyclopropanecarboxamido)benzo[d]thiazol-6-yl)-2,3-dihydro-1H-pyrrolo[3,2-b]pyridine-1-carboxylate] | 300
CC(=O)Nc1nc2ccc(-c3cnc4c(c3)N(C(=O)OC3CCCCC3)CCO4)cc2s1 [Compound B2, Cyclohexyl-7-(2-acetamidobenzo[d]thiazol-6-yl)-2,3-dihydro-1H-pyrido[2,3-b][1,4]oxazine-1-carboxylate] | 2
O=C1Cn2c(nc3ccc(-c4cnc5c(c4)N(C(=O)OC4CCCCC4)CCO5)cc32)N1 [Compound B34] | 2300
CC(=O)Nc1nc2ccc(-c3cnc4c(c3)N(C(=O)OC3CCCCC3)CC(=O)N4)cc2s1 [Compound B39, Cyclohexyl-7-(2-acetamidobenzo[d]thiazol-6-yl)-3-oxo-3,4-dihydropyrido[2,3-b]pyrazine-1(2H)-carboxylate] | 2700
CC(=O)Nc1nc2ccc(-c3cnc4c(c3)N(C(=O)OC3CCCCC3)CCC4)cc2s1 [Compound B48, cyclohexyl-7-(2-acetamidobenzo[d]thiazol-6-yl)-3,4-dihydro-1,5-naphthyridine-1(2H)-carboxylate] | 2.4
CNC(=O)Nc1cn2cc(-c3cnc4c(c3)N(C(=O)OCC3CC3)CC4)ccc2n1 [Compound B75] | 19
CC(=O)Nc1ccc2cc(-c3cnc4c(c3)N(C(=O)OC3CCCCC3)CCO4)ccc2n1 [Compound B80, Cyclohexyl7-(2-acetamidoquinolin-6-yl)-2,3-dihydro-1H-pyrido[2,3-b][1,4]oxazine-1-carboxylate] | 1000
CC(=O)Nc1nc2ccc(-c3cnc4c(c3)N(C(=O)OC3CCOCC3)CCN4)cc2s1 [Compound B41] | 110
O=C(Nc1cn2cc(-c3cnc4c(c3)N(C(=O)OC3CCOCC3)CC4)ccc2n1)C1CC1 [Compound B56] | 4.6
O=C(Nc1cn2nc(-c3cnc4c(c3)N(C(=O)OC3CCOCC3)CC4)ccc2n1)C1CC1 [Compound B58] | 17
O=C(Nc1nc2ccc(-c3cnc4c(c3)N(C(=O)OC3CCOCC3)CCC4)nc2s1)C1CC1 [Compound B51] | 7.2
CC(=O)Nc1nc2cc(-c3cnc4c(c3)N(C(=O)OC3CCCCC3)CCO4)ccn2n1 [Compound B5] | 42
CC(C)(C)OC(=O)Nc1nc2ccc(-c3cnc4c(c3)N(C(=O)OC3CCOCC3)CCO4)cc2s1 [Compound B17, tetrahydro-2H-pyran-4-yl-7-(2-((tert-butoxycarbonyl)amino)benzo[d]thiazol-6-yl)-2,3-dihydro-1H-pyrido[2,3-b][1,4]oxazine-1-carboxylate] | 26

Compound | IC50 [nM]
CC(=O)Nc1nc2ccc(-c3cnc4c(c3)N(C(=O)OC3CCCCC3)CCN4C)cc2s1 [Compound B43, cyclohexyl7-(2-acetamidobenzo[d]thiazol-6-yl)-4-methyl-3,4-dihydropyrido[2,3-b]pyrazine-1(2H)-carboxylate] | 13
CC(=O)Nc1nc2ccc(-c3cnc4c(c3)N(C(=O)CC3CCCCC3)CCO4)cc2s1 [Compound B29] | 27
O=C(Nc1nc2ccc(-c3cnc4c(c3)N(C(=O)OC3COC3)CC4)cc2s1)C1CC1 [Compound B78, Oxetan-3-yl-6-(2-(cyclopropanecarboxamido)benzo[d]thiazol-6-yl)-2,3-dihydro-1H-pyrrolo[3,2-b]pyridine-1-carboxylate] | 6.7
O=C(Nc1nc2ccc(-c3cnc4c(c3)N(C(=O)OC3CCOCC3)CC4)cc2s1)C1CC1 [Compound B54] | 2
CC(=O)Nc1nc2ccc(-c3cnc4c(c3)N(C(=O)OC3CCCCC3)CC4)cc2s1 [Compound B52] | 5
CC(=O)Nc1nc2ccc(-c3cnc4c(c3)N(C(=O)CC3CCOCC3)CC4)cc2s1 [Compound B61] | 39
CC(=O)Nc1cn2nc(-c3cnc4c(c3)N(C(=O)OC3CCCCC3)CCO4)ccc2n1 [Compound B12] | 11
CNC(=O)Nc1nc2ccc(-c3cnc4c(c3)N(C(=O)OCC3CC3)CC4)nc2s1 [Compound B74] | 23
CC(=O)Nc1nc2ccc(-c3cnc4c(c3)N(C(=O)CC(C)(C)C)CCO4)cc2s1 [Compound B30] | 186
CC(=O)Nc1cn2cc(-c3cnc4c(c3)N(C(=O)OC3CCOCC3)CC4)ccc2n1 [Compound B55] | 49
CN1CCN(C(=O)OC2CCOCC2)c2cc(-c3ccc4nc(NC(=O)C5CC5)sc4c3)cnc21 [Compound B45] | 18
CC(=O)Nc1nc2ccc(-c3cnc4c(c3)N(C(=O)OC3CCCCC3)CCO4)nc2s1 [Compound B31] | 8.5
CCN1CCN(C(=O)OC2CCCCC2)c2cc(-c3ccc4nc(NC(C)=O)sc4c3)cnc21 [Compound B46] | 70
CC(=O)Nc1nc2ccc(-c3cnc4c(c3)N(C(=O)OC3CCOCC3)CCC4)cc2s1 [Compound B49] | 11.4
O=C(Nc1cn2cc(-c3cnc4c(c3)N(C(=O)OCC3CC3)CC4)ccc2n1)C1CC1 [Compound B77] | 1.7
CC(=O)Nc1nc2ccc(-c3cnc4c(c3)N(C(=O)NC3CCCCC3)CCO4)cc2s1 [Compound B28] | 39
CC(=O)Nc1nc2ccc(-c3cnc4c(c3)N(C(=O)OC3CCOCC3)CCN4C)cc2s1 [Compound B44] | 95
O=C1CCn2c(nc3ccc(-c4cnc5c(c4)N(C(=O)OC4CCCCC4)CCO5)cc32)N1 [Compound B33, Cyclohexyl7-(2-oxo-1,2,3,4-tetrahydrobenzo[4,5]imidazo[1,2-a]pyrimidin-7-yl)-2,3-dihydro-1H-pyrido[2,3-b][1,4]oxazine-1-carboxylate] | 15
O=C(Nc1cn2cc(-c3cnc4c(c3)N(C(=O)CC3CCOCC3)CC4)ccc2n1)C1CC1 [Compound B64] | 53
CC(C)(C)OC(=O)Nc1cn2cc(-c3cnc4c(c3)N(C(=O)OC3CCCCC3)CCO4)ccc2n1 [Compound B10] | 5
CC(=O)Nc1nc2ccc(-c3cnc4c(c3)N(C(=O)OC3COCCOC3)CCO4)cc2s1 [Compound B27] | 132
O=C(Nc1nc2ccc(-c3cnc4c(c3)N(C(=O)OC3CCCCC3)CCO4)nc2s1)C1CC1 [Compound B32] | 0.9
CNC(=O)Nc1nc2ccc(-c3cnc4c(c3)N(C(=O)OCC3CC3)CC4)cc2s1 [Compound B73] | 1.8
CC(=O)Nc1nc2ccc(-c3cnc4c(c3)N(C(=O)CC3CCOCC3)CCO4)cc2s1 [Compound B36] | 530
O=C(Nc1nc2ccc(-c3cnc4c(c3)N(C(=O)OC3CCOCC3)CCN4)cc2s1)C1CC1 [Compound B42] | 38

Source: patent publication US11339177B2, “Heteroaryl compounds as inhibitors of necrosis, composition and method using the same” (ACCRO BIOSCIENCE INC., priority 2017, dated 2022)
